Experiment [1] in a line: DPPH radical scavenging assay. The following applies: for IC50: isolated compounds and Trolox. The method, then:
The extract and fractions were prepared in dimethyl sulfoxide (DMSO) at a concentration of 1mg/mL, while the isolated compounds were tested in 500 µM.
The 2,2-diphenyl-1-picrylhydrazyl (DPPH) assay was performed as described previously. One hundred μL of DPPH reagent (freshly prepared as 0.1% in methanol) was mixed with equal volume of each sample. Then, the solutions were left in the dark at room temperature for […]. Trolox (6-hydroxy-2,5,7,8-tetramethylchroman-2-carboxylic acid) was used as a positive control. The absorbances were measured at 517 nm. Data are represented as means ± SD according to the following equation:
Percentage inhibition = [(Average absorbance of blank - average absorbance of the test)/(Average absorbance of blank)] x 100
The IC50 of each tested sample was determined.

For the next experiment, the system named is iNOS. The experiment can be described thus: iNOS inhibitory activity in LPS-induced RAW264.7 macrophages (nitrite, Griess reagent). Format: cell-based. The following applies: Mus musculus. As to the method: The RAW264.7 macrophage cells were grown on DMEM media, supplemented with 10% FBS and 1% P/S (100 U/ml and […], respectively). The RAW264.7 macrophage cells were kept in DMEM at 37 °C and 5% CO2. For the anti-inflammatory assays, cells were used at 60% confluency after a 24-hour acclimatization period.
Stock solutions of the extract, fractions (1 mg/mL) and the isolated compounds (1000 μM) were made by dissolving in 0.1% DMSO in PBS (pH 7.2). For experiments, they were further diluted with DMEM to obtain the desired concentration. In a 96-well plate, the RAW264.7 macrophages were seeded (4 × 10^3 cells per well) overnight, then washed with DMEM. The macrophages were pre-treated with various concentrations of the extract, fractions (125- 0.98 µg/mL), isolated compounds, and standard drugs (125 - 0.06 µM) for 30 min, and further incubated with LPS (1 μg/mL) for 24 h. For the negative control, cells were treated with 0.1% DMSO (negative control LPS-). After incubation, the monolayer of […] cells were washed with ice-cold PBS (pH 7.2), trypsinized, and treated with lysis buffer (1% Triton X-100, 50 mMTris–HCl, pH 7.4, 0.2% sodium dodecyl sulfate, 0.2% sodium deoxycholate, 1 mM phenylmethylsulfonyl fluoride, 1 mM sodium ethylenediaminetetraacetate, 5 μg/mL of leupeptin, 5 μg/mL of aprotinin) then centrifuged (5000 rpm for 10 min) to collect the supernatant, The cell lysates were stored at − 80 °C utilized for anti-inflammatory assays.
The inhibitory activity of Inducible nitric oxide synthase (iNOS) was determined in terms of nitric oxide (NO) concentration by measuring the quantity of nitrite in the cell culture supernatant using Griess reagent. Equal volumes of each cell lysate (100 µL) and Griess reagent (1% sulfanilamide, 0.1% naphthylethylenediamine dihydrochloride, and 5% phosphoric acid) were mixed and incubated at room temperature for 10 min. Using a microplate reader, absorbances at 540 nm were measured. Parthenolide served as a positive control. The % inhibition was calculated using the following formula:
iNOS % Inhibition= [(OD control−OD sample)/ OD control x 100].
(The Griess reaction detects nitrite, a stable product of nitric oxide.)

For a further experiment, the target named is BChE (Homo sapiens, UniProt P06276). The experiment in a line: biochemical. As to the method:
(§1) The cholinesterase inhibitory activity was determined colorimetrically as previously published method with slight modifications. […] In a 96-well plate, 170 μl Tris-HCl buffer (200 mM, pH 7.5) was mixed with 20 μL of each tested sample solution and 20 μL of 0.1 U/ml enzyme solution (Ache or BChE) containing 0.1% bovine serum albumin in the same buffer. Dithio-bis-(2-nitrobenzoic acid) DTNB, an indicator, was added after 10 min of incubation at 25 °C (0.69 mM in tris buffer). […] In the control assays without the inhibitors, the tested samples were replaced by DMSO (20 μl) and their absorbance values were recorded (Reading B). Regarding the blank assays, the buffer (20 μL) was added instead of the enzyme.
(§2) The % inhibition was calculated using the following formula:
(§3) % of inhibition = [1− (corrected A/corrected B)] * 100

The next experiment has as its target AChE (Homo sapiens, UniProt P22303). The experiment can be described thus: biochemical. The method, then: as §1, §2, §3
Setting [2] is: LPS-induced RAW264.7 macrophages, isolated compounds and Parthenolide, read-out: iNOS IC50.

Data on six compounds can be found in article PMC10655324, “Combinative effects of akarkara root-derived metabolites on anti-inflammatory and anti-alzheimer key enzymes: integrating bioassay-guided fractionation, GC-MS analysis, and in silico studies” (BMC Complementary Medicine and Therapies, 2023).

Read-outs that look alike come from different tables or passages of the source.

BChE, sequence (P06276 29-602, species assumed): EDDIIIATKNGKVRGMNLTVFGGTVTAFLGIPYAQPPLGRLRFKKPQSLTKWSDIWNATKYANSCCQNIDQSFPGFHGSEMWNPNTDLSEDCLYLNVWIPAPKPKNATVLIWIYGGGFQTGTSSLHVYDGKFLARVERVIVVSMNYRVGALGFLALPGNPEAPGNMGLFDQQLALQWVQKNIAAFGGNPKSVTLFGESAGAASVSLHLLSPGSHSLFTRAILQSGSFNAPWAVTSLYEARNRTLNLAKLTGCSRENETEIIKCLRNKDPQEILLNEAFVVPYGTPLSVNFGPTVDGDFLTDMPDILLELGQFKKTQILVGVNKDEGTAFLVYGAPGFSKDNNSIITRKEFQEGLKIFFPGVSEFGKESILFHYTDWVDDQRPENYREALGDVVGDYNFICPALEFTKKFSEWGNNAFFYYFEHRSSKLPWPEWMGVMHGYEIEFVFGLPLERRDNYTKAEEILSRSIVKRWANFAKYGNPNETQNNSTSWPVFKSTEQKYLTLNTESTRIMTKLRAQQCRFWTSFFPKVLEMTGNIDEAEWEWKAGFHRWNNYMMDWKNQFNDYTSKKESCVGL
AChE, sequence (P22303 32-614): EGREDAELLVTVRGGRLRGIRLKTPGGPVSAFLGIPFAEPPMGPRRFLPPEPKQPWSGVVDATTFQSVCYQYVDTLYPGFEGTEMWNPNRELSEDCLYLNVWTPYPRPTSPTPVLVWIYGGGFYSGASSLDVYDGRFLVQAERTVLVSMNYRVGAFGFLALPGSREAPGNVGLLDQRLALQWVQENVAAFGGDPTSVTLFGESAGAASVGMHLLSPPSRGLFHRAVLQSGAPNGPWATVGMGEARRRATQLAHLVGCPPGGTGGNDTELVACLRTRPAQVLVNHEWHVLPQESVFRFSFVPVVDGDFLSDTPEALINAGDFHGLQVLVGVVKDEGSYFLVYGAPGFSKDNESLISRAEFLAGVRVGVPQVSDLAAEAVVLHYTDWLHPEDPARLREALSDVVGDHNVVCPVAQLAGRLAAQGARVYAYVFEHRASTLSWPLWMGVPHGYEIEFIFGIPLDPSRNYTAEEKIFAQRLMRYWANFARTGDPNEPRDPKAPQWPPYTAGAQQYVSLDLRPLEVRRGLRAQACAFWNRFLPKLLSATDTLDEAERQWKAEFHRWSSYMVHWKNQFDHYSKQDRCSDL

The IC50 is the point on the concentration scale where inhibition reaches its midpoint. As for `CCCCCCCC/C=C\CCCCCCCC(N)=O` [A1, 9-cis-octadecenamide], the IC50 in experiment [1] is 21.67 ± 0.21 µM; in the experiment on iNOS (RAW264.7, read-out: iNOS IC50), 10.3 ± 0.12 µM; at BChE, 9.29 ± 0.29 µM; at AChE, 8.37 ± 0.1 µM.
Turning to `CC[C@H](/C=C/[C@@H](C)[C@H]1CC[C@H]2[C@@H]3CC=C4C[C@@H](O)CC[C@]4(C)[C@H]3CC[C@]12C)C(C)C` [A2, stigmasterol], the IC50 in experiment [1] is 16.4 ± 0.23 µM; in the experiment with iNOS (RAW264.7, read-out: iNOS IC50), 6.72 ± 0.08 µM.
As for `Cc1c(C)c2c(c(C)c1O)CCC(C)(C(=O)O)O2` (stereo not drawn) [Trolox, 6-hydroxy-2,5,7,8-tetramethylchroman-2-carboxylic acid, reference compound], the “DPPH IC50” value in experiment [1] (extract, fractions and Trolox standard) is on record as 1.41 ± 0.08 µg/mL. The compound also came in with an IC50 in experiment [1] of 5.63 µM.
Consider `CCCCC/C=C/C=C/C(=O)NCCc1ccccc1` [A3, 2E, 4E-deca-2,4-dienoic acid 2-phenylethyl amide], for which the IC50 in experiment [1] stood at 17.73 ± 0.16 µM; in the experiment on iNOS (setting [2]) it was 9.15 ± 0.12 µM; against BChE, 8.65 ± 0.25 µM; against AChE it was 7.7 ± 0.26 µM.
`C=C1C(=O)O[C@H]2[C@H]1CC/C(C)=C/CC[C@@]1(C)O[C@@H]21` [Parthenolide, reference compound]: the concentration for half-maximal inhibition (IC50) with iNOS (setting [2]) was found to be 4.1 ± 0.08 µM.
Consider `CCCCC/C=C/C=C/C(=O)NCC(C)C` [A4, deca-2E,4E-dienoic acid isobutylamide], for which the IC50 in experiment [1] is 22.6 ± 0.41 µM; in the experiment with iNOS (RAW264.7, read-out: iNOS IC50), 11.4 ± 0.36 µM.
